The source of these data is patent US20180015051A1, “MODULATORS OF ALPHA-DICARBONYL DETOXIFICATION AND THEIR USE FOR THE TREATMENT OF DIABETIC PATHOLOGIES” (Buck Institute for Research on Aging, priority 2016, published 2018).

The structures appear in SMILES notation.

The conditions of experiment [1]: mice and humans; Gomes and Negrato (2014); cited from earlier work.
The next experiment concerns DAF-16/FOXO. The experiment can be described thus: DAF-16::GFP nuclear localization. Conditions: 7 mM MGO vs water; heat shock positive control. The format is in vivo, Caenorhabditis elegans. As to the method:
FIG. 11, panels A-E, SKN-1/Nrf2 activation due to exogenous MGO treatment and specificity of downstream response to a-DC stress. Related to FIG. 3. (A) Quantification (left) and fluorescence microscopy images (right) of GFP foci in gst-4p::gfp animals reared on empty vector (EV, L4440) or skn-1 RNAi supplemented with water (control) or 7 mM MGO. Foci are marked by white arrows. n=91. Scale bar 0.15 mm. […] Animals were categorized as follows: ‘high’ for strong GFP signal throughout the intestine, ‘medium’ for GFP signal in the anterior or posterior section of the intestine and ‘low’ for weak or no signal. n=100. (C) qPCR analysis of SKN-1 target genes, gst-4 and gcs-1 in N2 animals reared on EV or skn-1 RNAi supplemented with water (control, −) or 7 mM MGO (+). The data is normalized to the corresponding expression levels in N2 (EV, water), represented by the dotted line. (D) Fluorescence microscopy images depicting nuclear localization of DAF-16::GFP and SKN-1::GFP supplemented with water (control) or 7 mM MGO. Heat shock was used as a positive control to drive DAF-16 nuclear localization. Red arrows point towards nuclear localized transcription factors (SKN-1 and DAF-16). Scale bar 20 pm. (E) Fluorescence microscopy images to observe GFP foci in glod-4;gst-4p::gfp animals reared on empty vector (EV, L4440), sgk-1, sek-1, or pmk-1 RNAi. Scale bar 20 pm.

The test system of a further experiment is native HEK293T cells. As to the kind of experiment: Calcium imaging of native HEK293T cells (GFP only). Format: cell-based. The protocol:
Appropriate HEK293T-derived cells were seeded on collagen-coated glass bottom culture dishes (MatTek Corporation). Cells were loaded with 10 pM of Rhod-3 AM (Life Technology) for 30 min at 37° C. After 30 min they were washed twice with standard Tyrode's solution (135 mM NaCl, 4 mM KCl, 10 mM glucose, 10 mM HEPES, 2 mM CaCl2, and 1 mM MgCl2 at pH=7.4) at room temperature. Calcium imaging was performed on an Olympus BX51WI Axiovert microscope under a 60× objective. Fluorescent images were documented upon sequential excitation with 555 nm followed by 484 nm with a Roper CoolSnap CCD camera. After establishing a baseline 555/484 ratio, methylglyoxal or other agonists were diluted with Tyrode's solution (100 pM or 1 mM final concentration) and were perfused into cells. Images were processed with the MetaFlour (Olympus) software.

For the molecule `O=C(O)CCCCC1CCSS1` (stereo not drawn) [LA, a-lipoic acid], the “Effect on diabetic complications” value in experiment [1] was “documented to ameliorate diabetic complications”.
Consider `CC(=O)C=O` [MGO, methylglyoxal], for which the DAF-16/FOXO nuclear localization entry with DAF-16/FOXO is listed as “failed to trigger”. Besides, the “Ca2+ flux in native HEK293T cells (Rhod-3 AM)” value in the experiment with native HEK293T cells is listed as “neither compounds resulted in Ca^+2 flux”.
